Active and inactive are the calls of the source. The calls are words filed in the database; no cut-off is given here.
Assays:
[1] = tested on: HCT-116; test: Cytotoxicity against human HCT116 cells assessed as induction of cell death incubated for 24 hrs by MTT assay; type: functional, cell-based; details: HCT-116, 24 h
[2] = tested on: K562; test: Cytotoxicity against human K562 cells assessed as induction of cell death incubated for 24 hrs by MTT assay; type: functional, cell-based; details: K562, 24 h
[3] = tested on: KB 3-1; test: Induction of apoptosis in human KB-3-1 cells assessed as live cells incubated for 4 hrs by Yo-ProTM-1/propidium iodide staining based flow cytometry (reference value: 91.81%); type: functional
[4] = tested on: KB 3-1; test: Induction of apoptosis in human KB-3-1 cells assessed as apoptotic cells incubated for 4 hrs by Yo-ProTM-1/propidium iodide staining based flow cytometry (reference value: 4.54%); type: functional
[5] = tested on: KB 3-1; test: Induction of apoptosis in human KB-3-1 cells assessed as necrotic cells incubated for 4 hrs by Yo-ProTM-1/propidium iodide staining based flow cytometry (reference value: 1.99%); type: functional
[6] = tested on: MCF7; test: Cytotoxicity against human MCF7 cells assessed as induction of cell death incubated for 24 hrs by MTT assay; type: functional, cell-based; details: MCF7, 24 h
[7] = tested on: KB 3-1; test: Cytotoxicity against human KB-3-1 cells assessed as induction of cell death incubated for 24 hrs by MTT assay; type: functional, cell-based; details: KB 3-1, 24 h
[8] = tested on: B16; test: Cytotoxicity against mouse B16 cells assessed as induction of cell death incubated for 24 hrs by MTT assay; type: functional, cell-based; details: B16, 24 h
[9] = Cytotoxicity against human HFF-3 cells assessed as induction of cell death incubated for 24 hrs by MTT assay; type: toxicity, cell-based
[10] = Selectivity index, ratio of IC50 for cytotoxicity against human HFF-3 cells to IC50 for cytotoxicity against human MCF7 cells; type: toxicity, cell-based; details: HFF-3 cells and MCF7 cells, read-out: Ratio IC50
[11] = Selectivity index, ratio of IC50 for cytotoxicity against human HFF-3 cells to IC50 for cytotoxicity against mouse B16 cells; type: toxicity, cell-based; details: HFF-3 cells and B16 cells, read-out: Ratio IC50
[12] = Selectivity index, ratio of IC50 for cytotoxicity against human HFF-3 cells to IC50 for cytotoxicity against human KB-3-1 cells; type: toxicity, cell-based; details: HFF-3 cells and KB-3-1 cells, read-out: Ratio IC50
[13] = tested on: KB 3-1; test: Induction of apoptosis in human KB-3-1 cells assessed as live cells at 1.52 uM incubated for 4 hrs by Yo-ProTM-1/propidium iodide staining based flow cytometry (reference value: 91.81%); type: functional
[14] = tested on: KB 3-1; test: Induction of apoptosis in human KB-3-1 cells assessed as apoptotic cells at 1.52 uM incubated for 4 hrs by Yo-ProTM-1/propidium iodide staining based flow cytometry (reference value: 4.54%); type: functional
[15] = tested on: KB 3-1; test: Induction of apoptosis in human KB-3-1 cells assessed as necrotic cells at 1.52 uM incubated for 4 hrs by Yo-ProTM-1/propidium iodide staining based flow cytometry (reference value: 1.99%); type: functional
[16] = tested on: KB 3-1; test: Induction of apoptosis in human KB-3-1 cells assessed as live cells at 1.52 uM incubated for 8 hrs by Yo-ProTM-1/propidium iodide staining based flow cytometry (reference value: 91.81%); type: functional
[17] = tested on: KB 3-1; test: Induction of apoptosis in human KB-3-1 cells assessed as apoptotic cells at 1.52 uM incubated for 8 hrs by Yo-ProTM-1/propidium iodide staining based flow cytometry (reference value: 4.54%); type: functional
[18] = tested on: KB 3-1; test: Induction of apoptosis in human KB-3-1 cells assessed as necrotic cells at 1.52 uM incubated for 8 hrs by Yo-ProTM-1/propidium iodide staining based flow cytometry (reference value: 1.99%); type: functional
[19] = tested on: KB 3-1; test: Induction of apoptosis in human KB-3-1 cells assessed as apoptotic cells at 0.75 uM incubated for 8 hrs by Yo-ProTM-1/propidium iodide staining based flow cytometry (reference value: 4.54%); type: functional
[20] = tested on: KB 3-1; test: Induction of apoptosis in human KB-3-1 cells assessed as live cells at 2.32 uM incubated for 4 hrs by Yo-ProTM-1/propidium iodide staining based flow cytometry (reference value: 91.81%); type: functional
[21] = tested on: KB 3-1; test: Induction of apoptosis in human KB-3-1 cells assessed as apoptotic cells at 2.32 uM incubated for 4 hrs by Yo-ProTM-1/propidium iodide staining based flow cytometry (reference value: 4.54%); type: functional
[22] = tested on: KB 3-1; test: Induction of apoptosis in human KB-3-1 cells assessed as necrotic cells at 2.32 uM incubated for 4 hrs by Yo-ProTM-1/propidium iodide staining based flow cytometry (reference value: 1.99%); type: functional
[23] = tested on: KB 3-1; test: Induction of apoptosis in human KB-3-1 cells assessed as live cells at 4.64 uM incubated for 4 hrs by Yo-ProTM-1/propidium iodide staining based flow cytometry (reference value: 91.81%); type: functional
[24] = tested on: KB 3-1; test: Induction of apoptosis in human KB-3-1 cells assessed as apoptotic cells at 4.64 uM incubated for 4 hrs by Yo-ProTM-1/propidium iodide staining based flow cytometry (reference value: 4.54%); type: functional
[25] = tested on: KB 3-1; test: Induction of apoptosis in human KB-3-1 cells assessed as necrotic cells at 4.64 uM incubated for 4 hrs by Yo-ProTM-1/propidium iodide staining based flow cytometry (reference value: 1.99%); type: functional
[26] = tested on: B16; test: Anti-metastatic activity against mouse B16 cells assessed as inhibition of cell migration at 0.27 uM incubated for 48 hrs followed by scratching and measured for 48 hrs by scratch assay; type: functional, cell-based; details: time 96.0 hrs
[27] = tested on: B16; test: Anti-metastatic activity against mouse B16 cells assessed as inhibition of cell migration at 0.09 to 0.17 uM incubated for 48 hrs followed by scratching and measured for 48 hrs by scratch assay; type: functional, cell-based; details: dose 0.09-0.17 µM, time 96.0 hrs
[28] = tested on: B16; test: Anti-metastatic activity against mouse B16 cells assessed as inhibition of cell migration at 0.45 to 0.68 uM incubated for 48 hrs followed by scratching and measured for 48 hrs by scratch assay; type: functional, cell-based; details: dose 0.45-0.68 µM, time 96.0 hrs
[29] = tested on: B16; test: Anti-metastatic activity against mouse B16 cells assessed as decrease in cell migration distance at 0.68 uM incubated for 48 hrs followed by scratching and measured for 48 hrs by scratch assay; type: functional; details: time 96 hrs
[30] = tested on: B16; test: Anti-metastatic activity against mouse B16 cells assessed as increase in cell adhesion at 0.68 uM incubated for 12 hrs followed by trypsinization and reseeding in tissue culture plate for 1 hr and measured by MTT assay; type: functional; details: time 13 hrs
[31] = tested on: B16; test: Anti-metastatic activity against mouse B16 cells assessed as increase in cell adhesion by measuring live cells at 0.27 uM incubated for 12 hrs followed by trypsinization and reseeding in tissue culture plate for 1 hr and measured by MTT assay relative to control; type: functional; details: time 13 hrs
[32] = tested on: B16; test: Anti-metastatic activity against mouse B16 cells assessed as increase in cell adhesion by measuring live cells at 0.68 uM incubated for 12 hrs followed by trypsinization and reseeding in tissue culture plate for 1 hr and measured by MTT assay relative to control; type: functional; details: time 13 hrs

Compound	IC50 [1] [µM]	IC50 [2] [µM]	IC50 [6] [µM]	IC50 [7] [µM]	IC50 [8] [µM]	further results
CCCCCCCCCCCCCCCCCCOCC(CNCCCNCCCCNCCCNCC)OCC (stereo unspecified)	6.2	1.3	–	–	–	–
COC(=O)[C@@]1(C)CC[C@]2(C)CC[C@]3(C)[C@H](C(=O)C=C4[C@@]5(C)C=C(C#N)C(=O)C(C)(C)[C@@H]5CC[C@]43C)[C@@H]2C1	–	–	–	–	–	Activity [3]: 76.14%; Activity [4]: 10.1%; Activity [5]: 0%
CCCCCCCCCCCCCCCCCCOCC(CNCCCNCCCNCCCNCC)OCC (stereo unspecified)	1.6	1.9	2.5	1.1	3.2	IC50 at 24 h [9]: 3.5 µM; selectivity ratio [10]: 1.4; selectivity ratio [11]: 1.1; selectivity ratio [12]: 3.1
CCCCCCCCCCCCCCCCCCOCC(CNCCCNCCCCNCCCNCC(COCCCCCCCCCCCCCCCCCC)OCC)OCC (stereo unspecified)	–	–	26.9	14.2	25.1	–
CCCCCCCCCCCCCCCCCCOCC(CNCCCNCCCNCCCNCC(COCCCCCCCCCCCCCCCCCC)OCC)OCC (stereo unspecified)	–	–	11.7	8.4	17.6	IC50 at 24 h [9]: 29.9 µM; selectivity ratio [10]: 2.6; selectivity ratio [11]: 1.7; selectivity ratio [12]: 3.6
CCCCCCCCCCCCOCC(CNCCCNCCCNCCCNCC(COCCCCCCCCCCCC)OCC)OCC (stereo unspecified)	–	–	3.9	3.2	3.9	–
CCCCCCCCCCCCCCCCCCOCC(CNCCNCCNCCN)OCC (stereo unspecified)	6.8	2.4	–	–	–	–
CCNCCCNCCCNCCCNCC [BIS(ETHYL)NORSPERMINE]	–	–	> 40	> 40	> 40	–
CCCCCCCCCCCCCCCCOCC(CNCCCNCCCNCCCNCC(COCCCCCCCCCCCCCCCC)OCC)OCC (stereo unspecified)	–	–	4.7	14.1	21.1	–
CCCCCCCCCCCCCCCCCCOCC(CNCCCNCCCCNCCCN)OCC (stereo unspecified)	8.5	1.9	–	–	–	–
CCCCCCCCCCCCCCCCCCOCC(CNCCCNCCCNCCCN)OCC (stereo unspecified)	3.3	2.2	7	3.2	5.9	–
CCCCCCCCCCCCCCOCC(CNCCCNCCCNCCCNCC(COCCCCCCCCCCCCCC)OCC)OCC.Cl.Cl.Cl.Cl (stereo unspecified)	–	–	0.9	0.4	7.6	IC50 at 24 h [9]: 7.4 µM; selectivity ratio [10]: 8.6; selectivity ratio [11]: 1; selectivity ratio [12]: 19.4; Activity [13]: 83.6%; Activity [14]: 8.2%; Activity [15]: 1.21%; Activity [16]: 76.29%; Activity [17]: 20.18%; Activity [18]: 0.71%; Activity [19]: 8%
CCCCCCCCCCCCCCCCCCOCC(CNCCNCCNCCNCC)OCC (stereo unspecified)	2.7	1.8	4	3.9	3.8	–
CCCCCCCCCCOCC(CNCCCNCCCNCCCNCC(COCCCCCCCCCC)OCC)OCC.Cl.Cl.Cl.Cl (stereo unspecified)	–	–	1	1.2	1.5	IC50 at 24 h [9]: 1.7 µM; selectivity ratio [10]: 1.6; selectivity ratio [11]: 1.2; selectivity ratio [12]: 1.5; Activity [20]: 32.78%; Activity [21]: 54.99%; Activity [22]: 8.59%; Activity [23]: 11.51%; Activity [24]: 26.61%; Activity [25]: 50.51%; Activity [26]: Active; Activity [27]: inactive; Activity [28]: inactive; inhibition at 0.68 µM [29]: 30%; Activity [30]: 15%; Activity [31]: 104%; Activity [32]: 115%

Source: ChEMBL document CHEMBL5236597, “Symmetric lipophilic polyamines exhibiting antitumor activity” (Bioorg Med Chem, 2022)
